In PubChem BioAssay (NCI) one finds TGI data, which are given here for 16 molecules.

Common to all, as to test: NCI-60 cell line screen, 48 h
Experiment [1] concerns BT-549 breast.
Experiment [2] relates to HCC-2998 colon.
The test system of experiment [3] is RPMI-8226 leukemia.
Experiment [4] relates to NCI-H23 lung.
The test system of experiment [5] is MALME-3M melanoma.
The test system of experiment [6] is HT29 colon.
In experiment [7] the test system is MCF7 breast.
For experiment [8], the system named is SK-MEL-5 melanoma.
Experiment [9] has as its system SNB-75 CNS.
Experiment [10] relates to T-47D breast.

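Growth conditions: 96-well plates. Treatment: test compound, 48 hours, 5 concentrations. Analysis: linear interpolation between bracketing concentrations; unreached endpoints set to highest concentration. TGI marks complete inhibition of growth.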

In the case of `O=C(NNC(c1ccccc1)C(F)(F)F)c1ccncc1` (stereo unspecified), the TGI in experiment [1], in [2], in [3], in experiment [4], in experiment [5] and in [6] was over 100 µM in each case. Further, the TGI in experiment [7], in experiment [8] and in experiment [9] was over 100 µM each time.

Turning to `CCN(CC)C(=S)SS(=O)(=O)c1ccc(Cl)cc1`, the TGI in experiment [1] was over 100 µM; in [10] it was over 100 µM; in experiment [2] it was over 100 µM; in experiment [3], 43.2 µM; in experiment [4], over 100 µM; in experiment [5], 27.5 µM. The TGI is 32.1 µM in experiment [6] and 30.9 µM in [8].

Turning to `c1ccc(C2=NOC3(c4ccccc4)SC4CCCCC4CN23)cc1` (stereo unspecified), the TGI was over 100 µM in [2]; 95.4 µM in [3]; over 100 µM in [4]; over 100 µM in experiment [5]; over 100 µM in experiment [6]; 28.7 µM in experiment [8]. Besides, the TGI in experiment [9] came to 84.8 µM.

For the molecule `COc1ccc(C2Oc3cc(OC)c(O)c(C)c3[C@H]2C)cc1` (stereo partly specified), the TGI in [2] is over 100 µM; in experiment [4], over 100 µM; in experiment [5], over 100 µM; in experiment [6] it was over 100 µM; in experiment [8], over 100 µM; in [9], 69.5 µM.

With `C=C1C(=O)OC2/C=C(/C)C3CC(O)C(C)(CC(OC(=O)/C(C)=C/C)C12)O3` (stereo unspecified), the TGI was 28.4 µM in [2]; over 22.4 µM in [3]; 16.9 µM in experiment [4]; 4.48 µM in experiment [5]; 13.1 µM in [6]; 16.2 µM in experiment [8]. The TGI in [9] stood at 28.2 µM.

For `O=C(O)CS`, the TGI in [2], in experiment [3], in experiment [4], in experiment [5], in [6] and in experiment [8] was over 100 µM each time. The molecule also showed a TGI in [9] of over 100 µM.

Take `CCOC(=O)c1c(C)cc(=O)n2c1[nH]c1ccccc12`: the TGI in [1], in experiment [10], in [2], in experiment [4], in experiment [5] and in experiment [6] was over 100 µM in each case. For the same molecule, the TGI in experiment [7] and in experiment [8] was over 100 µM each time.

Turning to `CCN(CC)CCN1C(=O)c2c(c(-c3ccccc3)c3ccccc3c2-c2ccccc2)C1=O`, the TGI in [1], in experiment [2], in [3], in experiment [5], in [6] and in experiment [7] was over 100 µM throughout. Also, the TGI in experiment [8] and in experiment [9] was over 100 µM throughout.

`CS(=O)(=O)c1c(N)c2nc(Cl)cn2c2nc3ccccc3nc12`: the TGI in experiment [2], in experiment [3], in [4], in [5], in experiment [6] and in experiment [8] was over 100 µM in each case. In [9], this molecule showed a TGI of over 100 µM.

As to `Clc1ccccc1C1=NN(c2ccccc2)C2c3ccccc3OCC12` (stereo unspecified), the TGI in experiment [2], in experiment [3], in experiment [4], in experiment [5], in experiment [6] and in [8] was over 100 µM in each case. Further, the TGI in experiment [9] was over 100 µM.

For `O=C(Nc1nn(C(=O)c2ccc(Cl)cc2)c(=O)s1)c1ccc(Cl)cc1`, the TGI in experiment [1], in experiment [10], in experiment [2], in [4], in [5] and in experiment [6] was over 100 µM in each case. The TGI in experiment [7] and in experiment [8] was over 100 µM throughout.

For the molecule `CCN(CC)CCCNc1ncc(C)c2[nH]c3ccncc3c12`, the TGI is 23.6 µM in experiment [2]; over 100 µM in experiment [3]; 34.6 µM in experiment [4]; 27.4 µM in experiment [5]; 26.2 µM in [6]; 17.4 µM in [7]. Also, the values for the TGI in experiment [8] and in experiment [9] were 28.1 µM and 27.7 µM, respectively.

`CCN(CC)CCCC(C)Nc1ccnc2ccc3nn(C)nc3c12` (stereo unspecified): the TGI in [2], in experiment [3], in experiment [4], in [5], in experiment [6] and in experiment [8] was over 100 µM throughout. Also, the TGI in experiment [9] was over 100 µM.

`CN1CCCCC(C#N)(c2ccccc2)CC1` (stereo unspecified): the TGI in experiment [10], in [2], in experiment [3], in [4], in experiment [5] and in experiment [6] was over 100 µM throughout. Also, the TGI in [7], in experiment [8] and in [9] was over 100 µM each time.

With `CN(CCO)c1nc(N)cc(=O)[nH]1`, the TGI in experiment [2], in experiment [3], in experiment [4], in [5], in [6] and in experiment [8] was over 100 µM each time. Moreover, in [9], the TGI was over 100 µM.

Turning to `S=P1(N2CCCCC2)Oc2ccc3ccccc3c2-c2c(ccc3ccccc23)O1`, the TGI in experiment [2] was over 100 µM; in experiment [3], over 100 µM; in experiment [4], over 100 µM; in experiment [5] it was over 59.6 µM; in experiment [6] it was over 100 µM; in experiment [7] it was over 100 µM. The TGI in experiment [8] was over 100 µM; in [9], over 92.1 µM.
